# According to patent US20030191051A1, “Combination therapy for the treatment of bacterial infections” (priority 2002, published 2003):
# Test: Combination therapy of antibiotic and COX-2 selective inhibitor administered to a mammal to treat or prevent a bacterial infection
# Settings: pharmaceutically effective amount, administered together with a pharmaceutically effective amount of linezolid to a mammal
compound,measurement,value
CS(=O)(=O)c1ccc(C2=C(c3ccccc3)C(=O)OC2)cc1 [rofecoxib],side effects resulting from the administration of the antibiotic,reduced side effects
